Measurements from patent US20240270793A1, “COMPOSITIONS” (UNIVERSITY OF SOUTHAMPTON, priority 2020, published 2024).
Square brackets hold non-standard residues; d marks the D form. Peptide text beside a SMILES is read from it. Phe(4-I) = N[C@@H](Cc1ccc(I)cc1)C(=O)O

Key:
HIF-2α PAS-B (240-350) = molecular target: T1, HIF-2α PAS-B (240-350) (Homo sapiens, UniProt Q99814); assay: MST binding to recombinantly expressed HIF-2α PAS-B domain; conditions: HIF-2α PAS-B vs HIF-1α PAS-B
T1 construct: HIF-2α PAS-B (240-350); His tag; made in house; host or cells: E. coli BL21(DE3)-Rosetta, pET28a
T1 sequence (Q99814 240-350): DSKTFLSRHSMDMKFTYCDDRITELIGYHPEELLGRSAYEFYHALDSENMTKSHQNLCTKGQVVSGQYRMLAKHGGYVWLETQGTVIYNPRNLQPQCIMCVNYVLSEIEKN
Procedure: The three lead peptides were next chemically synthesised, using Fmoc-solid phase peptide synthesis methodology, followed by in-solution cyclisation under high dilution conditions.
Genes encoding for human HIF-1α PAS-B (238-349) and HIF-2α PAS-B (240-350) were each cloned into pET28a vectors at the BamHI and SacI restriction sites. The recombinant plasmids were next transformed into BL21(DE3)-Rosetta chemically competent cells. Cells were grown in LB media at 37° C. to an OD600 of 0.7, after which expression was induced by addition of 0.5 mM IPTG. Following overnight expression at 16° C., cells were pelleted and resuspended in buffer containing 50 mM Tris, 150 mM NaCl, 5% glycerol, 1 mM TCEP, protease inhibitors (Roche) and 20 mM imidazole, pH 8.0. Cells were lysed by sonication, and the supernatant applied to a 1 mL Histrap FF affinity column. The His-tagged protein of interest was eluted with buffer containing 50 mM Tris, 150 mM NaCl, 5% glycerol, 1 mM TCEP and 250 mM imidazole. The protein was then loaded onto a HiLoad 16/600 superdex 75 pg size exclusion column (GE healthcare) equilibrated with assay buffer containing 50 mM Tris, 150 mM NaCl, 5% glycerol and 1 mM TCEP, pH 8.0. Fractions containing the desired protein were flash-frozen and stored at −80° C. prior to use. […]

solubility (qualitative) = type: physicochemical
HIF-1α PAS-B (238-349) = molecular target: T2, HIF-1α PAS-B (238-349) (Homo sapiens, UniProt Q16665); assay: MST binding to recombinantly expressed HIF-1α PAS-B domain; conditions: HIF-1α PAS-B, parent CRLIIF
T2 construct: human HIF-1α PAS-B (238-349); His tag; made in house; host or cells: E. coli BL21(DE3)-Rosetta, pET28a
T2 sequence (Q16665 238-349): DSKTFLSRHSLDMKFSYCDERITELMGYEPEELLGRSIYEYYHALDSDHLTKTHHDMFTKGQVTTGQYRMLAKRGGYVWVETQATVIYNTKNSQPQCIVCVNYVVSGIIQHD
Procedure: Genes encoding for human HIF-1α PAS-B (238-349) and HIF-2α PAS-B (240-350) were each cloned into pET28a vectors at the BamHI and SacI restriction sites. The recombinant plasmids were next transformed into BL21(DE3)-Rosetta chemically competent cells. Cells were grown in LB media at 37° C. to an OD600 of 0.7, after which expression was induced by addition of 0.5 mM IPTG. Following overnight expression at 16° C., cells were pelleted and resuspended in buffer containing 50 mM Tris, 150 mM NaCl, 5% glycerol, 1 mM TCEP, protease inhibitors (Roche) and 20 mM imidazole, pH 8.0. Cells were lysed by sonication, and the supernatant applied to a 1 mL Histrap FF affinity column. The His-tagged protein of interest was eluted with buffer containing 50 mM Tris, 150 mM NaCl, 5% glycerol, 1 mM TCEP and 250 mM imidazole. The protein was then loaded onto a HiLoad 16/600 superdex 75 pg size exclusion column (GE healthcare) equilibrated with assay buffer containing 50 mM Tris, 150 mM NaCl, 5% glycerol and 1 mM TCEP, pH 8.0. Fractions containing the desired protein were flash-frozen and stored at −80° C. prior to use.
HIF-α proteins were labelled with Monolith NT-647 labelling dye (Nanotemper Technologies GmbH) according to the manufacturer's instructions. MST experiments were performed on a Monolith NT.115 system (Nanotemper Technologies GmbH), in assay buffer containing 50 nM labelled protein, 10% DMSO and 0.05% TWEEN-20. MST measurements were performed using 50% LED and 50% MST power.

HIF-1a = molecular target: T3, HIF-1a (Homo sapiens, UniProt Q16665); assay: CETSA in MCF-7 cells; type: cell-based; conditions: observed at 51° C. and 54° C.
T3 construct: endogenous in cells; host or cells: MCF-7
T3 sequence (Q16665 whole entry): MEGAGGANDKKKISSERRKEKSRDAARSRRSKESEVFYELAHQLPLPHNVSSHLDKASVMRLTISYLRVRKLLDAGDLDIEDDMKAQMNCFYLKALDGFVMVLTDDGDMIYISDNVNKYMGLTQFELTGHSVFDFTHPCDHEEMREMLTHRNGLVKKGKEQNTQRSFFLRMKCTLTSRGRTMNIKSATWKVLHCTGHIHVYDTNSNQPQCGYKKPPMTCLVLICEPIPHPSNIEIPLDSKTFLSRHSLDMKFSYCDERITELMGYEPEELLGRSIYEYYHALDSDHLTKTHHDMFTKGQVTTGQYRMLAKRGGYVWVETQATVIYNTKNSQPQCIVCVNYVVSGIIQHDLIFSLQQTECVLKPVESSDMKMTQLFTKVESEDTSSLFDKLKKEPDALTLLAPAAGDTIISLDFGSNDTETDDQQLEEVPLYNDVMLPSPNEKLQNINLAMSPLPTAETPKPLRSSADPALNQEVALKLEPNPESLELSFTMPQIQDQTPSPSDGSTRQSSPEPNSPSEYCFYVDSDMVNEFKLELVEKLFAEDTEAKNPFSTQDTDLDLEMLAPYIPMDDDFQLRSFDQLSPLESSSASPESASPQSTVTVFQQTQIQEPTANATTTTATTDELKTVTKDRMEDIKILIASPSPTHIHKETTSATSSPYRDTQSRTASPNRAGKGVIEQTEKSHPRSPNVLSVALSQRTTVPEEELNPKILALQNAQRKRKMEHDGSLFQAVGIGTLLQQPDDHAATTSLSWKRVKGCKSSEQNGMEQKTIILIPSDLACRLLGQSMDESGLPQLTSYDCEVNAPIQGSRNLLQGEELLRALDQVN
Procedure: The binding of 4-iodo derivative to HIF-1a was assessed by CETSA in MCF-7 cells. Stabilisation of HIF-1a by this compound can be observed at 51° C. and 54° C.
The binding of 4-iodo derivative to HIF-1a was assessed by CETSA in MCF-7 cells. Stabilisation of HIF-1a by this compound can be observed at 51° C. and 54° C. (FIG. 7).

[1] = test system: HRE-controlled YFP expression in T-REx-293 cell line; assay: YFP reporter assay (YFP under control of three HRE copies) in hypoxia; type: cell-based; conditions: YFP-reporter HEK cell line, various doses
Procedure: The effect of the cyclic peptides on cellular systems was assessed. A cell-based assay was developed in which the expression of yellow fluorescent protein (YFP) was put under the control of the HRE. A cassette was designed containing the YFP gene preceded by three copies of the HRE sequence. This cassette in turn was stably integrated into the chromosome of T-REX-293 cell line as described previously. […] In these cells, hypoxia results in increased expression of YFP (directly by HIF), so a HIF inhibitor would be expected to reduce the fluorescence of these cells when incubated in hypoxia.
Following in vitro characterisation and optimisation of binding, the effect of the cyclic peptides on cellular systems was assessed. A cell-based assay was developed in which the expression of yellow fluorescent protein (YFP) was put under the control of the HRE. A cassette was designed containing the YFP gene preceded by three copies of the HRE sequence. This cassette in turn was stably integrated into the chromosome of T-REx-293 cell line as described previously.^12
In these cells, hypoxia results in increased expression of YFP (directly by HIF), so a HIF inhibitor would be expected to reduce the fluorescence of these cells when incubated in hypoxia.

cells = assay: commercial cell-viability assay; type: cell-based; conditions: at up to twice the tested doses
Procedure: The 4-iodo derivative was tested in a commercial cell-viability assay, and was not toxic to cells at up to twice the tested doses.
The 4-iodo derivative was tested in a commercial cell-viability assay, and was not toxic to cells at up to twice the tested doses (FIG. 6).

loss in Kd compared to the 1α isoform (HIF-2α PAS-B (240-350)): 2.2 fold | water solubility compared with the 4-benzyl compound (solubility (qualitative)): better water solubility | improvement in affinity relative to the parent compound (HIF-1α PAS-B (238-349)): 4.5 fold | Stabilisation of HIF-1a by CETSA (HIF-1a): Stabilisation
SMILES: CC[C@H](C)[C@@H]1NC(=O)[C@H](CC(C)C)NC(=O)[C@H](CCCNC(=N)N)NC(=O)[C@H](CS)NC(=O)[C@H](Cc2ccc(I)cc2)NC(=O)[C@H]([C@@H](C)CC)NC1=O [Cyclic peptide #18, cyclo-cys agr leuileile (4-I)phe] (cyclo(CRLII[Phe(4-I)]))
IC50 [1]: ~35 µM | toxicity to cells in cell-viability assay (cells): not toxic
